Source: the NIST ThermoML archive (doi:10.1016/j.fluid.2016.02.009)
± gives the expanded uncertainty stated by the source.

Conditions: Liquid, Vibrating tube method

CC(C)CCOCCC(C)C [di-(3-methylbutyl) ether]
mass density [kg/m3]
Conditions | 283.15 K | 288.15 K | 293.15 K | 298.15 K | 303.15 K | 308.15 K
100 kPa | 782.76 ± 0.3 | 778.71 ± 0.3 | 774.66 ± 0.3 | 770.6 ± 0.3 | 766.54 ± 0.3 | 762.46 ± 0.3
5000 kPa | 786.88 ± 0.32 | 782.95 ± 0.32 | 779.03 ± 0.32 | 775.09 ± 0.33 | 771.15 ± 0.33 | 767.21 ± 0.33
10000 kPa | 790.71 ± 0.35 | 786.89 ± 0.35 | 783.04 ± 0.35 | 779.24 ± 0.36 | 775.41 ± 0.36 | 771.57 ± 0.36
15000 kPa | 794.36 ± 0.38 | 790.64 ± 0.38 | 786.89 ± 0.38 | 783.18 ± 0.39 | 779.46 ± 0.39 | 775.74 ± 0.39
20000 kPa | 797.85 ± 0.41 | 794.22 ± 0.41 | 790.55 ± 0.41 | 786.94 ± 0.42 | 783.3 ± 0.42 | 779.67 ± 0.42
25000 kPa | 801.22 ± 0.44 | 797.65 ± 0.44 | 794.08 ± 0.44 | 790.54 ± 0.45 | 786.98 ± 0.45 | 783.45 ± 0.45
30000 kPa | 804.45 ± 0.47 | 800.95 ± 0.47 | 797.46 ± 0.47 | 793.99 ± 0.48 | 790.53 ± 0.48 | 787.05 ± 0.48
35000 kPa | 807.58 ± 0.5 | 804.15 ± 0.5 | 800.71 ± 0.51 | 797.31 ± 0.51 | 793.91 ± 0.51 | –
40000 kPa | 810.61 ± 0.53 | 807.23 ± 0.53 | 803.86 ± 0.54 | 800.51 ± 0.54 | 797.19 ± 0.55 | –
45000 kPa | 813.52 ± 0.56 | 810.19 ± 0.57 | 806.9 ± 0.57 | 803.61 ± 0.58 | 800.34 ± 0.58 | –
50000 kPa | 816.37 ± 0.59 | 813.09 ± 0.6 | 809.84 ± 0.6 | 806.62 ± 0.61 | 803.4 ± 0.62 | –
55000 kPa | 819.14 ± 0.62 | 815.91 ± 0.63 | 812.71 ± 0.63 | 809.51 ± 0.64 | 806.36 ± 0.65 | –
60000 kPa | 821.82 ± 0.65 | 818.64 ± 0.66 | 815.48 ± 0.66 | 812.33 ± 0.67 | 809.23 ± 0.68 | –
65000 kPa | 824.44 ± 0.68 | 821.33 ± 0.68 | 818.18 ± 0.69 | 815.07 ± 0.7 | 812.01 ± 0.71 | –
